Bounds are passed on as bounds.

In the first assay the target is T1, androgen receptor (AR) splicing variant AR-v7 (Homo sapiens, UniProt P10275).
T1 construct: The degradation activity of compounds on AR-v7 in 22RV1 cells; host or cells: 22RV1 cells
T1 sequence (P10275 1-644 isoform P10275-3): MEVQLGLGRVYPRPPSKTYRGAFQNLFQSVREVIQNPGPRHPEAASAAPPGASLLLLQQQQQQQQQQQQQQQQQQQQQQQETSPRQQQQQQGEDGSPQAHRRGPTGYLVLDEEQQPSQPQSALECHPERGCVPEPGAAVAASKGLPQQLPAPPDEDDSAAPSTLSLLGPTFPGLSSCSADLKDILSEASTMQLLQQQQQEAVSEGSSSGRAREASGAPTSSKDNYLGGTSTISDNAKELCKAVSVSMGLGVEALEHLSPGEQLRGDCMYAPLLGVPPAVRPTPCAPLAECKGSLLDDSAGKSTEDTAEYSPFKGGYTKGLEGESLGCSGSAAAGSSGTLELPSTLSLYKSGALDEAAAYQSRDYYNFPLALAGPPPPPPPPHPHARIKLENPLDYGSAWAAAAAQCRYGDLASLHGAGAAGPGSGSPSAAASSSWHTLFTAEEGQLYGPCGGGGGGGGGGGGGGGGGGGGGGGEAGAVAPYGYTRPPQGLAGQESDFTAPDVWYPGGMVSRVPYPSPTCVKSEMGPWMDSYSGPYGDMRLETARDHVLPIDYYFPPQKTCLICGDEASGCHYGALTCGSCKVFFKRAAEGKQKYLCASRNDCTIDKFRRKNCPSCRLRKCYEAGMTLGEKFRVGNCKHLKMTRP
The assay can be described thus: Degradation activity on androgen receptor splicing variant AR-v7 in 22RV1 cells (ELISA). The following applies: AR-v7 degradation in 22RV1 cells, 48 h, class symbols. In kind it is cell-based. As to the method: The degradation activity of the compound of the present invention on the androgen receptor splicing variant AR-V7 was analyzed using enzyme-linked immunosorbent assay (ELISA).
The plate was cultured in a 5% CO2 cell incubator at 37° C. for 2 days until the cells adhered to the wall. • 2) The drug was prepared into 10 mM stock solution with dimethylsulfoxide (DMSO). […] The plate was gently shaken and mixed. In addition, negative control wells (only containing culture medium) and positive control wells (only containing cells and DMSO) were set. • 3) After the cells were cultured in an incubator for 48 h, the medium was removed and the cells were rinsed once with ice cold PBS. Then, ice-cold 1× cell lysis buffer was added to each well of the cell culture plate. After the plate was incubated on ice for 15 min, the plate was tapped to mix. • 4) The supernatant of the cell lysate was transferred from the cell culture plate to a […] plate for ELISA. • 5) The newly prepared Capture antibody (green) was mixed with the newly prepared HRP-labeled antibody (red), and then the antibody mixture was added to the above 96-well ELISA plate. • 6) The ELISA plate was sealed with plastic film, and then incubated in a 25° C. incubator for 1 h. • 7) The washing buffer was added to each well, and then TMB substrate was added to each well of the ELISA plate. Subsequently, the plate was cultured in an incubator at 37° C. for 5 min. • 8) 100 μl of stop solution was added to each well of the ELISA plate, and the plate was gently tapped for several seconds. The absorbance was read at 450 nm within 30 min. The data were analyzed by the Dose-response equation in the software GraphPad Prism8, to obtain DC50 and Dmax values.
Background: In an ELISA, binding on a coated surface is turned into a signal by an enzyme label.
The term DC50 denotes the concentration giving 50% degradation. A lower DC50 goes with degradation at low concentration. Compound `CCS(=O)(=O)Nc1nccc(COc2ccc(C(C)(C)c3ccc(OCCCCCCCCOCCCCNc4ccc5c(c4)C(=O)N(C4CCC(=O)NC4=O)C5=O)cc3)cc2)n1` (centres unmarked) [Example 44] displayed a DC50 of 101 to 1000 nM.
Regarding `CC(C)(c1ccc(OCc2ccnc(NS(C)(=O)=O)n2)cc1)c1ccc(OC2CN(c3cccc4c3C(=O)N(C3CCC(=O)NC3=O)C4=O)C2)cc1` (centres unmarked) [Example 47, N-(4-((4-(2-(4-((1-(2-(2,6-dioxopiperidin-3-yl)-1,3-dioxoisoindolin-4-yl)azetidin-3-yl)oxy)phenyl)propan-2-yl)phenoxy)methyl)pyrimidin-2-yl)methanesulfonamide], the DC50 lay within 101 to 1000 nM.
Same read-out and setting: then `CC(C)(c1ccc(OCc2ccnc(NS(C)(=O)=O)n2)cc1)c1ccc(OCC2CN(c3cccc4c3C(=O)N(C3CCC(=O)NC3=O)C4=O)C2)cc1` (centres unmarked) [Example 49, N-(4-((4-(2-(4-((1-(2-(2,6-dioxopiperidin-3-yl)-1,3-dioxoisoindolin-4-yl)azetidin-3-yl)methoxy)phenyl)propan-2-yl)phenoxy)methyl)pyrimidin-2-yl)methanesulfonamide], with 1000 to 5000 nM; and `CC(C)(c1ccc(OCCCCCCCCOCCCCNc2ccc3c(c2)C(=O)N(C2CCC(=O)NC2=O)C3=O)cc1)c1ccc(OCc2ccnc(NS(=O)(=O)C3CC3)n2)cc1` (centres unmarked) [Example 50], with 101 to 1000 nM.
The compound `CC(C)(c1ccc(OCCCCCCCCOCCCCNc2ccc3c(c2)C(=O)N(C2CCC(=O)NC2=O)C3=O)cc1)c1ccc(OCc2cnc(NS(C)(=O)=O)nc2)cc1` (centres unmarked) [Example 51] came in with a DC50 of 101 to 1000 nM.
On the same count and under the same terms, then `CC(C)(c1ccc(OCCNc2cccc3c2C(=O)N(C2CCC(=O)NC2=O)C3=O)cc1)c1ccc(OCc2ccnc(NS(C)(=O)=O)n2)cc1` (centres unmarked) [Example 53, N-(4-((4-(2-(4-(2-((2-(2,6-dioxopiperidin-3-yl)-1,3-dioxoisoindolin-4-yl)amino)ethoxy)phenyl)isopropan-2-yl)phenoxy)methyl)pyrimidin-2-yl)methanesulfonamide], with 1000 to 5000 nM.
As to `CC(C)(c1ccc(OCCCCOCCCCNc2ccc3c(c2)C(=O)N(C2CCC(=O)NC2=O)C3=O)cc1)c1ccc(OCc2ccnc(NS(C)(=O)=O)n2)cc1` (centres unmarked) [Example 54, N-(4-((4-(2-(4-(4-(4-((2-(2,6-dioxopiperidin-3-yl)-1,3-dioxoisoindolin-5-yl)amino)butoxy)butoxy)phenyl)isopropan-2-yl)phenoxy)methyl)pyrimidin-2-yl)methanesulfonamide], the DC50 lay within 101 to 1000 nM.
The same measure, in the same setting: with `CCC(CC)(c1ccc(OCCCCCCCCOCCCCNc2ccc3c(c2)C(=O)N(C2CCC(=O)NC2=O)C3=O)cc1)c1ccc(OCc2ccnc(NS(C)(=O)=O)n2)cc1` (centres unmarked) [Example 57, N-(4-((4-(3-(4-((8-(4-((2-(2,6-dioxopiperidin-3-yl)-1,3-dioxoisoindolin-5-yl)amino)butoxy)octyl)oxy)phenyl)pentan-3-yl)phenoxy)methyl)pyrimidin-2-yl)methanesulfonamide] the figure was 101 to 1000 nM; with `CS(=O)(=O)Nc1cc(COc2ccc(C3(c4ccc(OCCCCCCCCOCCCCNc5ccc6c(c5)C(=O)N(C5CCC(=O)NC5=O)C6=O)cc4)CCC3)cc2)ccn1` (centres unmarked) [Example 58], 1000 to 5000 nM; with `CC(C)(c1ccc(OCCCNc2cccc3c2C(=O)N(C2CCC(=O)NC2=O)C3=O)cc1)c1ccc(OCc2ccnc(N3CCOCC3)n2)cc1` (centres unmarked) [Example 59], 11 to 100 nM.
For `CN1CCN(c2nccc(COc3ccc(C(C)(C)c4ccc(OCCCNc5cccc6c5C(=O)N(C5CCC(=O)NC5=O)C6=O)cc4)cc3)n2)CC1` (centres unmarked) [Example 60], the DC50 was 101 to 1000 nM.
With `CC1CN(c2nccc(COc3ccc(C(C)(C)c4ccc(OCCCCCCCCOCCCCNc5ccc6c(c5)C(=O)N(C5CCC(=O)NC5=O)C6=O)cc4)cc3)n2)C1` (centres unmarked) [Example 63], the DC50 was in the range of 1000 to 5000 nM.
With `CC(C)(c1ccc(OCCCNc2ccc3c(c2)C(=O)N(C2CCC(=O)NC2=O)C3=O)cc1)c1ccc(OCc2ccnc(S(C)(=O)=O)n2)cc1` (centres unmarked) [Example 67, 2-(2,6-dioxopiperidin-3-yl)-5-((3-(4-(2-(4-(4-(2-(methanesulfonyl)pyrimidin-4-yl)methoxy)phenyl)propan-2-yl)phenoxy)propyl)amino)isoindolin-1,3-dione], the DC50 was in the range of 1000 to 5000 nM.

Staying with this assay, now noted: AR-v7 degradation in 22RV1 cells, 48 h, numeric values.
Regarding `CC(C)(c1ccc(OCCCCCNc2ccc3c(c2)C(=O)N(C2CCC(=O)NC2=O)C3=O)cc1)c1ccc(OCc2ccnc(NS(C)(=O)=O)n2)cc1` (centres unmarked) [Example 38, N-(4-((4-(2-(4-((5-((2-(2,6-dioxopiperidin-3-yl)-1,3-dioxoisoindolin-5-yl)amino)pentyl)oxy)phenyl)propan-2-yl)phenoxy)methyl)pyrimidin-2-yl)methanesulfonamide], the DC50 is over 5000 nM.
Still for that read-out and setting: then `CC(C)(c1ccc(OCc2ccnc(NS(C)(=O)=O)n2)cc1)c1ccc(OC[C@H]2CC[C@H](CN3CCC(CN4CCC5(CC4)CN(c4ccc6c(c4)C(=O)N(C4CCC(=O)NC4=O)C6=O)C5)CC3)CC2)cc1` (some centres unmarked) [Example 39], with over 10000 nM; and `CC(C)(c1ccc(OCc2ccnc(NS(C)(=O)=O)n2)cc1)c1ccc(OCC2CCN(CCCOCCCNc3ccc4c(c3)C(=O)N(C3CCC(=O)NC3=O)C4=O)CC2)cc1` (centres unmarked) [Example 40], with over 10000 nM.
For the compound `CC(C)(c1ccc(OCc2ccnc(NS(C)(=O)=O)n2)cc1)c1ccc(OC[C@H]2CC[C@H](CN3CCC(CN4CCN(c5ccc6c(c5)C(=O)N(C5CCC(=O)NC5=O)C6=O)CC4)CC3)CC2)cc1` (some centres unmarked) [Example 43], the DC50 is over 10000 nM.
On the same count and under the same terms, with `CC(C)(c1ccc(OCc2ccnc(NS(C)(=O)=O)n2)cc1)c1ccc(OCC2CCN(C[C@H]3CC[C@H](CN4CCN(c5ccc6c(c5)C(=O)N(C5CCC(=O)NC5=O)C6=O)CC4)CC3)CC2)cc1` (some centres unmarked) [Example 45] the figure was 8760 nM; with `CC(C)(c1ccc(OCc2ccnc(NS(C)(=O)=O)n2)cc1)c1ccc(OC2CN(c3ccc4c(c3)C(=O)N(C3CCC(=O)NC3=O)C4=O)C2)cc1` (centres unmarked) [Example 46, N-(4-((4-(2-(4-((1-(2-(2,6-dioxopiperidin-3-yl)-1,3-dioxoisoindolin-5-yl)azetidin-3-yl)oxy)phenyl)propan-2-yl)phenoxy)methyl)pyrimidin-2-yl)methanesulfonamide], over 5000 nM.
Consider `CC(C)(c1ccc(OCc2ccnc(NS(C)(=O)=O)n2)cc1)c1ccc(OCC2CN(c3ccc4c(c3)C(=O)N(C3CCC(=O)NC3=O)C4=O)C2)cc1` (centres unmarked) [Example 48, N-(4-((4-(2-(4-((1-(2-(2,6-dioxopiperidin-3-yl)-1,3-dioxoisoindolin-5-yl)azetidin-3-yl)methoxy)phenyl)propan-2-yl)phenoxy)methyl)pyrimidin-2-yl)methanesulfonamide], for which the DC50 is over 10000 nM.
The compound `CC(C)(c1ccc(OCCCCCOCCCOCC2CCN(c3ccc4c(c3)C(=O)N(C3CCC(=O)NC3=O)C4=O)C2)cc1)c1ccc(OCc2ccnc(NS(C)(=O)=O)n2)cc1` (centres unmarked) [Example 52, N-(4-((4-(2-(4-((5-(3-((1-(2-(2,6-dioxopiperidin-3-yl)-1,3-dioxoisoindolin-5-yl)pyrrolidin-3-yl)methoxy)propoxy)pentyl)oxy)phenyl)propan-2-yl)phenoxy)methyl)pyrimidin-2-yl)methanesulfonamide] showed a DC50 of over 10000 nM.
`CC(C)(c1ccc(OCc2ccnc(NS(C)(=O)=O)n2)cc1)c1ccc(OC[C@H]2CC[C@H](COCCCCCNc3ccc4c(c3)C(=O)N(C3CCC(=O)NC3=O)C4=O)CC2)cc1` (some centres unmarked) [Example 56, N-(4-((4-(2-(4-(((1r,4r)-4-(((5-((2-(2,6-dioxopiperidin-3-yl)-1,3-dioxoisoindolin-5-yl)amino)pentyl)oxy)methyl)cyclohexyl)methoxy)phenyl)isopropan-2-yl)phenoxy)methyl)pyrimidin-2-yl)methanesulfonamide]: half-maximal degradation (DC50) was put at 5200 nM.
The compound `CC(C)(c1ccc(OCCCCCCCCOCCCCNc2ccc3c(c2)C(=O)N(C2CCC(=O)NC2=O)C3=O)cc1)c1ccc(N2CCc3cnc(N4CC5(COC5)C4)nc3C2)cc1` (centres unmarked) [Example 65, 5-((4-((8-(4-(2-(4-(2-(2-oxa-6-azaspiro[3.3]heptan-6-yl)-5,8-dihydropyrido[3,4-d]pyrimidin-7(6H)-yl)phenyl)propan-2-yl)phenoxy)octyl)oxy)butyl)amino)-2-(2,6-dioxopiperidin-3-yl)isoindolin-1,3-dione] had a DC50 of over 10000 nM.

The record behind these values is patent US20250051347A1, “BIFUNCTIONAL CHIMERIC HETEROCYCLIC COMPOUND AND USE THEREOF AS ANDROGEN RECEPTOR DEGRADER” (Hinova Pharmaceuticals, Inc., priority 2021, published 2025).
